Measured values taken from the METLIN SMRT retention time set (Domingo-Almenara et al. 2019).

Assay: gradient 5% acetonitrile 3 min, to 50% in 2 min, to 85% in 15 min, held 3 min, 100 µL/min
Settings: column: Zorbax Extend-C18 2.1 x 50 mm; eluents: water / acetonitrile, 0.1% formic acid
Outline: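 The system's dead and dwell volumes were 40 μL and 900 μL, with a Zorbax Extend-C18 column (2.1 × 50 mm, 1.8 μm) run at 100 μL/min in water and acetonitrile containing 0.1% formic acid each. Pure standards were analyzed in mixtures of ~100 molecules by HPLC–quadrupole time-of-flight mass spectrometry in positive and negative ionization mode. Retention time was assigned from computationally picked, manually inspected adduct peaks.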
Work on `O=C(COc1cccc(C(F)(F)F)c1)NCCCn1nc(-c2ccncc2)ccc1=O` yielded an RP-LC retention time of 601 s.
Compound `COc1ccc(CNC(=O)N(c2ccccc2)c2ccccc2)c(OC)c1` has an RP-LC retention time of 925 s.
For `Cc1nn(C)c(C)c1C(C)NC(=O)CCC1CCCN(c2cc(NC3CC3)ncn2)C1` (stereo unspecified), the RP-LC retention time was 594 s.
Compound `Cc1nn(Cc2nc(-c3ccc(NC(=O)c4ccco4)cc3)oc2C)c(C)c1C` has an RP-LC retention time of 828 s.
`O=C(c1ccncc1)N1CCCCC1c1nc(-c2ccc(F)cc2)no1` (stereo unspecified) showed an RP-LC retention time of 673 s.
For `Cc1noc(CNC(=O)C2CCN(C(=O)Cc3cn(C)c4ccccc34)CC2)n1`, the RP-LC retention time was 656 s.
In the case of `Cc1ccc(-c2noc(Cc3nnc(-c4ccc(C)c(C)c4)o3)n2)cc1C`, the RP-LC retention time is reported as 1230 s.
For `Cc1ccc(S(=O)(=O)N2CCC(C(=O)NCc3csc(-c4cccs4)n3)CC2)c(C)c1`, the RP-LC retention time was 977 s.
For `CCOC(=O)c1cnc(N2CCN(c3ccccc3F)CC2)c2ccccc12`, the RP-LC retention time was 1350 s.
For `N#Cc1ccc(S(=O)(=O)N2CCC(C(=O)NCC(=O)N3CCCc4ccccc43)CC2)cc1`, the RP-LC retention time was 832 s.
Compound `O=C(NCc1ccccc1F)c1ccc2c(c1)CN(C1CCSCC1)CCO2` has an RP-LC retention time of 584 s.
Work on `CCN1CCC(N(Cc2ccc3c(c2)OCO3)C(=O)Nc2ccccc2)CC1` yielded an RP-LC retention time of 650 s.
For `COc1ccc(C(O)Cn2ccn3nc(-c4cc(C)ccc4C)cc3c2=O)cc1OC` (stereo unspecified), the RP-LC retention time was 879 s.
Work on `CCOC(=O)CNC(=O)NC(C(=O)N1CCc2ccccc21)C(C)C` (stereo unspecified) yielded an RP-LC retention time of 783 s.
`O=C(Cn1cnc2nc3c(cc2c1=O)CCCC3)N1CCN(C(=O)c2ccco2)CC1` gave an RP-LC retention time of 622 s.
`COC(=O)c1scc(-c2ccccc2)c1S(=O)(=O)N1CCN(c2ccccn2)CC1` gave an RP-LC retention time of 729 s.
`Cc1ccc(-n2c(=O)c3c(cc(C)n3C)n(CC(=O)Nc3ccc(Br)cc3F)c2=O)cc1` showed an RP-LC retention time of 944 s.
Compound `Fc1cccc(-c2nnc(-c3ccccc3Cl)o2)c1` has an RP-LC retention time of 1060 s.
With `Cc1ccccc1NC(=O)Cn1nc2cc(-c3ccccn3)nc(C)n2c1=O` the RP-LC retention time was 746 s.
`O=S(=O)(CCOc1ccccc1)N1CCN(c2ccccc2F)CC1` gave an RP-LC retention time of 1010 s.
`COc1ccc(-c2noc(C3CCCN3C(=O)c3ccc(N(C)C)cc3)n2)cc1` (stereo unspecified) gave an RP-LC retention time of 961 s.
In the case of `Cc1nnc(NC(=O)c2nc(-c3cnccn3)no2)s1`, the RP-LC retention time is reported as 598 s.
`CN(C(=O)c1cc2c(=O)oc3ccccc3c2n1C)c1cccc(Cl)c1` showed an RP-LC retention time of 933 s.
With `COCCN1C(=O)CCc2cc(NS(=O)(=O)c3ccc(C)c(Cl)c3)ccc21` the RP-LC retention time was 851 s.
`CN1CCN(c2nc3cc(C(F)(F)F)ccc3n3cccc23)CC1` showed an RP-LC retention time of 768 s.
Work on `CSc1ccccc1CN1CCC(CNC(=O)C(=O)Nc2ccc3c(c2)OCO3)CC1` yielded an RP-LC retention time of 586 s.
Compound `CCN(C(=O)Cn1c(N2CCCCC2)nc(C)cc1=O)c1ccccc1` has an RP-LC retention time of 661 s.
`COc1ccccc1CNC(=O)CN1CCCC1=O` showed an RP-LC retention time of 631 s.
In the case of `CCCC(NC(=O)Cc1ccc(OC)c(Cl)c1)C(=O)Nc1nc2ccccc2[nH]1` (stereo unspecified), the RP-LC retention time is reported as 720 s.
Work on `CCc1ccccc1Nc1c(-c2nc(C)no2)cnc2nc(C)ccc12` yielded an RP-LC retention time of 826 s.
`Cc1ccc(C)c(S(=O)(=O)Nc2ccc(-c3cn4ccc(C)nc4n3)cc2)c1` gave an RP-LC retention time of 678 s.
For `COC(=O)c1ccc(Cn2nc(C3CC3)c3cnn(-c4cccc(Cl)c4)c3c2=O)cc1`, the RP-LC retention time was 1170 s.
With `COc1ccc(N2CC(c3nc(-c4ccccc4Cl)no3)CC2=O)cc1OC` (stereo unspecified) the RP-LC retention time was 878 s.
`CCN1C(=O)c2cc(S(=O)(=O)Nc3ccccc3)ccc2Oc2cccnc21` gave an RP-LC retention time of 959 s.
`CCn1ccc(C(=O)N2CC(Oc3ccc(-c4nc(C)no4)cc3)C2)n1` gave an RP-LC retention time of 819 s.
With `O=C(Cn1cccc1-c1nnc(C2CC2)o1)Nc1ccc(F)c(Cl)c1` the RP-LC retention time was 908 s.
